In brackets after ≈: the same amount, converted by molar mass.
Tests used:
[1] = test system: Bacillus subtilis ATCC 6633; test: Antimicrobial activity (MIC); format: cell-based; details: ATCC6633, read-out: Minimal Inhibitory Concentrations (MICs)
[2] = test system: Pyricularia oryzae IAM 5016; test: microbe, parasite or virus in culture; format: cell-based; details: IAM5016, read-out: Minimal Inhibitory Concentrations (MICs)
Sarcina lutea ATCC 9341 = test: Antimicrobial activity (MIC); format: cell-based; details: Micrococcus luteus, ATCC9341, read-out: Minimal Inhibitory Concentrations (MICs)
[3] = test system: Micrococcus lysodeikticus IFO 3333; test: Antimicrobial activity (MIC); format: cell-based; details: Micrococcus luteus, IFO3333, read-out: Minimal Inhibitory Concentrations (MICs)
[4] = test system: Trichophyton tonsurans IFO 5928; test: Antimicrobial activity (MIC); format: cell-based; details: IFO5928, read-out: Minimal Inhibitory Concentrations (MICs)
Proteus rettgeri = test: Antimicrobial activity (MIC); format: cell-based; details: Providencia rettgeri, read-out: Minimal Inhibitory Concentrations (MICs)
[5] = test system: Streptococcus faecalis IFO 12964; test: Antimicrobial activity (MIC); format: cell-based; details: Enterococcus faecalis, IFO12964, read-out: Minimal Inhibitory Concentrations (MICs)
Serratia marcescens NHL = test: Antimicrobial activity (MIC); format: cell-based; details: read-out: Minimal Inhibitory Concentrations (MICs)
[6] = test system: Staphylococcus epidermidis ATCC 12228; test: Antimicrobial activity (MIC); format: cell-based; details: ATCC12228, read-out: Minimal Inhibitory Concentrations (MICs)
[7] = test system: Candida albicans NHL 4019; test: Antimicrobial activity (MIC); format: cell-based; details: NHL4019, read-out: Minimal Inhibitory Concentrations (MICs)
[8] = test system: Staphylococcus aureus Terajima; test: Antimicrobial activity (MIC); format: cell-based; details: read-out: Minimal Inhibitory Concentrations (MICs)
[9] = test system: Staphylococcus aureus Smith; test: Antimicrobial activity (MIC); format: cell-based; details: read-out: Minimal Inhibitory Concentrations (MICs)
Shigella flexneri 2b = test: Antimicrobial activity (MIC); format: cell-based; details: read-out: Minimal Inhibitory Concentrations (MICs)
Solubility to solvents = format: physicochemical
[10] = test system: Staphylococcus aureus 209P; test: Antimicrobial activity (MIC); format: cell-based; details: read-out: Minimal Inhibitory Concentrations (MICs)
[11] = test system: Klebsiella pneumoniae ATCC 10031; test: Antimicrobial activity (MIC); format: cell-based; details: ATCC10031, read-out: Minimal Inhibitory Concentrations (MICs)
[12] = test system: Aspergillus niger ATCC 9642; test: Antimicrobial activity (MIC); format: cell-based; details: ATCC9642, read-out: Minimal Inhibitory Concentrations (MICs)
[13] = test system: Pseudomonas aeruqinosa IFO 13736; test: Antimicrobial activity (MIC); format: cell-based; details: IFO13736, read-out: Minimal Inhibitory Concentrations (MICs)
Escherichia coli 0-1 = test: Antimicrobial activity (MIC); format: cell-based; details: 01, read-out: Minimal Inhibitory Concentrations (MICs)
[14] = Property as to basic, acid or neutral; format: physicochemical
mouse leukemia P-388 = test: Antitumor activity (life prolongation) on mouse leukemia P-388; format: in vivo; details: i.p. once a day ten times, CDF1 male mice, P-388 i.p.
Method: Curing effects of substances SS42227A and B on mouse leukemia P-388 were examined according to the following method. In the Table, the antitumor activities, or the effect of life prolongation, are expressed as the percentage of the survival time (days) of treated groups (T) per the survival time (days) for the untreated or control group (C).
CDF1 (male: supplied by Charles River Japan Inc.) were inoculated intraperitoneally with 1×10^6 P-388 cells. Then, commencing at 24 hours thereafter, substance SS42227A was intraperitoneally injected into the mice once a day and ten times in total.

SMILES | MIC [1] [µg/mL] | MIC [2] [µg/mL] | MIC (Sarcina lutea ATCC 9341) [µg/mL] | MIC [3] [µg/mL] | MIC [4] [µg/mL] | MIC (Proteus rettgeri) [µg/mL] | MIC [5] [µg/mL] | MIC (Serratia marcescens NHL) [µg/mL] | MIC [6] [µg/mL] | MIC [7] [µg/mL] | MIC [8] [µg/mL] | MIC [9] [µg/mL] | MIC (Shigella flexneri 2b) [µg/mL] | Solubility to solvents (Solubility to solvents; acetone) | Solubility to solvents (Solubility to solvents; chloroform) | Solubility to solvents (Solubility to solvents; diethyl ether) | Solubility to solvents (Solubility to solvents; ethyl acetate) | Solubility to solvents (Solubility to solvents; methanol) | Solubility to solvents (Solubility to solvents; n-hexane) | Solubility to solvents (Solubility to solvents; water) | further results
COc1cc(C(=O)OC(C(=O)NC(C(=O)NC(=CO)C(C)=O)=C2C(OC(C)=O)C(O)C3CN23)C2(C)CO2)c2cccc(C)c2c1 (stereo not shown) [SS42227B] | 50 (≈ 80.2 µM) | > 100 | < 0.2 | < 0.2 | > 100 | > 100 | 0.78 (≈ 1.25 µM) | > 100 | 100 (≈ 160 µM) | > 100 | 50 (≈ 80.2 µM) | 1.56 (≈ 2.5 µM) | 0.78 (≈ 1.25 µM) | Soluble | Soluble | Sparingly soluble | Soluble | Soluble | Sparingly soluble | Sparingly soluble | MIC [10]: 50 µg/mL (≈ 80.2 µM); MIC [11]: 50 µg/mL (≈ 80.2 µM); MIC [12]: > 100 µg/mL; MIC [13]: > 100 µg/mL; MIC (Escherichia coli 0-1): > 100 µg/mL; Property as to basic, acid or neutral [14]: Acid
COc1cc(C(=O)OC(C(=O)NC(C(=O)NCC(C)=O)=C2C(OC(C)=O)C(O)C3CN23)C2(C)CO2)c2cccc(C)c2c1 (stereo not shown) [SS42227A] | 0.78 (≈ 1.31 µM) | 100 (≈ 168 µM) | < 0.2 | < 0.2 | > 100 | 100 (≈ 168 µM) | 0.78 (≈ 1.31 µM) | 100 (≈ 168 µM) | 6.25 (≈ 10.5 µM) | > 100 | 6.25 (≈ 10.5 µM) | 1.56 (≈ 2.62 µM) | < 0.2 | Soluble | Soluble | Soluble | Soluble | Soluble | Sparingly soluble | Sparingly soluble | Antitumor Activity T/C (survival time treated/control) (mouse leukemia P-388; 2 μg/kg/day): 163%; Antitumor Activity T/C (survival time treated/control) (mouse leukemia P-388; 4 μg/kg/day): 144%; Antitumor Activity T/C (survival time treated/control) (mouse leukemia P-388; 8 μg/kg/day): 154%; Antitumor Activity T/C (survival time treated/control) (mouse leukemia P-388; 15 μg/kg/day): 192%; Antitumor Activity T/C (survival time treated/control) (mouse leukemia P-388; 15.1 μg/kg/day): 170%; Antitumor Activity T/C (survival time treated/control) (mouse leukemia P-388; 30 μg/kg/day): 211%; Antitumor Activity T/C (survival time treated/control) (mouse leukemia P-388; 31.2 μg/kg/day): 195%; Antitumor Activity T/C (survival time treated/control) (mouse leukemia P-388; 60 μg/kg/day): 77%; Antitumor Activity T/C (survival time treated/control) (mouse leukemia P-388; 62.5 μg/kg/day): 152%; MIC [10]: 6.25 µg/mL (≈ 10.5 µM); MIC [11]: 3.12 µg/mL (≈ 5.24 µM); MIC [12]: > 100 µg/mL; MIC [13]: > 100 µg/mL; MIC (Escherichia coli 0-1): > 100 µg/mL; Property as to basic, acid or neutral [14]: Neutral
